Molecular target: Fibroblast growth factor receptor 3 (Homo sapiens, UniProt P22607)
Test: Inhibition of recombinant human N-terminal His6-tagged FGFR3 (447 to 761 residues) expressed in Sf21 cells using biotinylated EQEDEPEGDYFEWLE peptide as substrate preincubated for 4 hrs followed by substrate addition and measured after 1 hr in presence of ATP by FRET assay

Sequence of Fibroblast growth factor receptor 3 (P22607 whole entry, the tested form may be a part): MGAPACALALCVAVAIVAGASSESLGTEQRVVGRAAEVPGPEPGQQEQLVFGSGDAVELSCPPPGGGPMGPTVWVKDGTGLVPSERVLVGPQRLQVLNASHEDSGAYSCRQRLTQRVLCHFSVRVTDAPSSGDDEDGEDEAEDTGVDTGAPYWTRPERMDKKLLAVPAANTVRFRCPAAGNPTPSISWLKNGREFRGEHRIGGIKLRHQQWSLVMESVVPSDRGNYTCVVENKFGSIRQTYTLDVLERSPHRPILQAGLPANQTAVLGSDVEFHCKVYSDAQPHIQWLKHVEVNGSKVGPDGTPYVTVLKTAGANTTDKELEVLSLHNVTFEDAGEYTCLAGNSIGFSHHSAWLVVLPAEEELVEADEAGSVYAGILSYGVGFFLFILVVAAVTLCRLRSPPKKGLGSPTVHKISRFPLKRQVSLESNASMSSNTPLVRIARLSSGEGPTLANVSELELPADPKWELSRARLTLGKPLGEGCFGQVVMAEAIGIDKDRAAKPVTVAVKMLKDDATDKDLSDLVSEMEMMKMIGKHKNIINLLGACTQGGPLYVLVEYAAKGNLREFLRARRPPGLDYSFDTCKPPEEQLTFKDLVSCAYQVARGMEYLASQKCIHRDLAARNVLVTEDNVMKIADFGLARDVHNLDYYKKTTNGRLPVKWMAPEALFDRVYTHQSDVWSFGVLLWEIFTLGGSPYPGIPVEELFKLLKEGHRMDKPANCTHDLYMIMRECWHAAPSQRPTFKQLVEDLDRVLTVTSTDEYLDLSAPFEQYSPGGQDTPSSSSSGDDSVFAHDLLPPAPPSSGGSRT

| IC50 [nM] | Structure (SMILES) |
| --- | --- |
| < 10 | CC(C)C1C(=O)N(C)CCN1c1ccc2[nH]nc(-c3cc4cnccc4s3)c2n1 (stereo unspecified) |
| < 10 | Cn1cc(-c2n[nH]c3ccc(N4CCn5cnc(C(F)(F)F)c5C4)nc23)cn1 |
| < 10 | CC1CN(c2ccc3[nH]nc(-c4cnn(C)c4)c3n2)C(C)C(=O)N1C (stereo unspecified) |
| < 10 | CN1CCN(c2ccc3[nH]nc(-c4cnn(C)c4)c3n2)C(C2CC2)C1=O (stereo unspecified) |
| < 10 | CC(C)C1C(=O)N(C)CCN1c1ccc2[nH]nc(-c3cnn(Cc4cccnc4)c3)c2n1 (stereo unspecified) |
| < 10 | CC(C)C1C(=O)N(C)CCN1c1ccc2[nH]nc(-c3cnn(C)c3)c2n1 (stereo unspecified) |
